Results on 57 compounds are retold here after ChEMBL document CHEMBL5729210, “Benzodiazepine derivatives as RSV inhibitors” (2022).

The structures appear in SMILES notation. Several values for one entry are separate records, joined by “and”; a condition that tells them apart may be missing. Identical values can stand only once. Some results are limits rather than exact numbers.

This test is described as follows: RSV-A Assay: The description is Japanese.
A word on the EC50: it is the concentration that produces a half-maximal response. Lower therefore signals a more potent agent. Compound `Cc1nc(-c2nnc(N[C@H]3N=C(c4ccccc4)c4ccccc4NC3=O)o2)cs1` gave an EC50 of over 800 nM.

`N#Cc1cc(-c2nnc(NC3N=C(c4ccccc4)c4ccccc4NC3=O)o2)ccc1F` (configuration not stated): the EC50 entry is “in the range around 600 nM”.

`N#Cc1ccc(-c2nnc(N[C@H]3N=C(c4ccccc4)c4ccccc4NC3=O)o2)c(N2CC3CCC(C2)O3)c1`: the EC50 was under 400 nM.

As for `CO[C@@H]1CCN(c2ccccc2-c2nnc(NC3N=C(c4ccccc4)c4ccccc4NC3=O)o2)C1` (some centres not stated), the EC50 is over 800 nM.

Compound `O=C1Nc2ccccc2C(c2ccccc2)=NC1Nc1nnc(-c2ccc(NC3CCCCC3)cc2)o1` (configuration not stated) displayed an EC50 of over 800 nM.

Compound `O=C1Nc2ccccc2C(c2ccccc2)=NC1Nc1nnc(-c2ccc(-n3cncn3)nc2)o1` (configuration not stated) registered an EC50 of over 800 nM.

In turn, `O=C1Nc2ccccc2C(c2ccccc2)=NC1Nc1nnc(-c2cccnc2N2CC(F)(F)C2)o1` (configuration not stated) showed an EC50 of over 800 nM.

The compound `CC1(Nc2nnc(-c3ccc(F)cc3)o2)N=C(c2ccccc2)c2ccccc2NC1=O` (configuration not stated) registered an EC50 of over 800 nM.

In turn, `CN1CCC(N2CCC[C@H]2c2nnc(NC3N=C(c4ccccc4)c4ccccc4NC3=O)o2)CC1` (some centres not stated) showed an EC50 of over 800 nM.

Turning to `O=C1Nc2ccccc2C(c2ccccc2)=NC1Nc1nnc(-c2ccccc2F)o1` (configuration not stated), the EC50 is over 800 nM.

Regarding `O=C1Nc2ccccc2C(c2ccccc2)=N[C@@H]1Nc1nnc(-c2cnc(N3CCOCC3)cn2)o1`, the EC50 was over 800 nM.

The compound `O=C1Nc2ccccc2C(c2ccccc2)=NC1Nc1nnc(-c2cccnc2N2CCCC(F)(F)C2)o1` (configuration not stated) showed a concentration for a half-maximal effect (EC50) of over 800 nM.

`O=C1Nc2ccccc2C(c2ccccc2)=NC1Nc1nnc(-c2cccc(N3CCOCC3)c2)o1` (configuration not stated) registered an EC50 of over 800 nM.

For the compound `O=C1Nc2ccccc2C(c2ccccc2)=NC1Nc1nnc(-c2ccc3ccccc3c2)o1` (configuration not stated), the EC50 entry is “in the range around 600 nM”.

Consider `COc1ccnc(-c2nnc(NC3N=C(c4ccccc4)c4ccccc4NC3=O)o2)c1` (configuration not stated), for which the EC50 was over 800 nM.

Turning to `COC[C@H]1C[C@@H]1c1cc(C(F)(F)F)cnc1-c1nnc(N[C@H]2N=C(c3ccccc3)c3ccccc3NC2=O)o1`, the EC50 is over 800 nM.

In turn, `CN1CCN(c2ncccc2-c2nnc(NC3N=C(c4ccccc4)c4ccccc4NC3=O)o2)CC1` (configuration not stated) yielded an EC50 of over 800 nM.

As to `CC(C)(c1nc(-c2nnc(N[C@H]3N=C(c4ccccc4)c4ccccc4NC3=O)o2)c(N2CCOCC2)s1)N1CCOCC1`, the EC50 was under 400 nM.

Take `O=C1Nc2ccccc2C(c2ccccc2)=N[C@@H]1Nc1nnc(-c2cnc(-n3cncn3)nc2N2CCOCC2)o1`: the EC50 is over 800 nM.

The compound `COC[C@@H]1C[C@H]1c1cc(C(F)(F)F)cnc1-c1nnc(N[C@H]2N=C(c3ccccc3)c3ccccc3NC2=O)o1` came in with an EC50 of over 800 nM.

`COCCNc1cc(C(F)(F)F)cnc1-c1nnc(N[C@H]2N=C(c3ccccc3)c3ccccc3NC2=O)o1` returned an EC50 of under 400 nM.

Turning to `O=C1Nc2ccccc2C(c2ccccc2)=N[C@@H]1Nc1nnc(-c2nc(C(F)(F)F)sc2NCC2COC2)o1`, the EC50 entry is “in the range around 600 nM”.

`O=C1Nc2ccccc2C(c2ccccc2)=NC1Nc1ccc(-c2ccncc2)nn1` (configuration not stated): the half-maximal effective concentration (EC50) was over 800 nM.

As for `O=C1Nc2c(F)cccc2C(c2ccccc2)=N[C@@H]1Nc1nnc(-c2ccccc2N2CCOCC2)o1`, the EC50 was under 400 nM.

`COC(=O)c1occc1N1CCOCC1` had an EC50 of under 400 nM.

With `N#Cc1ccc(-c2nnc(NC3N=C(c4ccccc4)c4ccccc4NC3=O)o2)cc1` (configuration not stated), the EC50 entry is “in the range around 600 nM”.

The compound `CC(C)n1cc(-c2nnc(N[C@H]3N=C(c4ccccc4)c4ccccc4NC3=O)o2)c(N2CCOCC2)n1` returned an EC50 of under 400 nM.

`CCOC(=O)c1nc(-c2ccc(F)cn2)sc1N1CCOCC1` returned an EC50 of under 400 nM.

As to `COc1ccc(CN2C(=O)C(C)(N=[N+]=[N-])N=C(c3ccccc3)c3ccccc32)cc1` (configuration not stated), the EC50 was over 800 nM.

`COCCOc1cc(C#N)ccc1-c1nnc(N[C@H]2N=C(c3ccccc3)c3ccccc3NC2=O)o1` showed an EC50 of under 400 nM.

As for `CC(=O)N1CCC(c2nnc(NC3N=C(c4ccccc4)c4ccccc4NC3=O)o2)CC1` (configuration not stated), the EC50 is over 800 nM.

Consider `O=C1Nc2ccccc2C(c2ccccc2)=N[C@H]1Nc1nnc(-c2ccc(N3CCOCC3)cc2F)o1`, for which the EC50 is over 800 nM.

As for `O=C1Nc2ccccc2C(c2ccccc2)=NC1Nc1nnc(-c2ccc(-n3cnnc3)cc2)o1` (configuration not stated), the EC50 was over 800 nM.

Turning to `CN(c1nnc(-c2ccc(F)cc2)o1)C1N=C(c2ccccc2)c2ccccc2NC1=O` (configuration not stated), the EC50 was over 800 nM.

`CCOC(=O)c1cnn2ccc(C)cc12` came in with an EC50 of over 800 nM.

The compound `N#CCCNc1cc(C(F)(F)F)cnc1-c1nnc(N[C@H]2N=C(c3ccccc3)c3ccccc3NC2=O)o1` gave a half-maximal effective concentration (EC50) of under 400 nM.

For the compound `CCOC(=O)c1nnc(NC2N=C(c3ccccc3)c3ccccc3NC2=O)o1` (configuration not stated), the EC50 is over 800 nM.

The compound `O=C1Nc2ccccc2C(c2ccccc2)=NC1Nc1nnc(-c2cccnc2N2C[C@H]3COC[C@H]3C2)o1` (some centres not stated) came in with a half-maximal effective concentration (EC50) of over 800 nM.

Compound `O=C1Nc2ccccc2C(c2ccccc2)=NC1Nc1nnc(C2(F)CC2)o1` (configuration not stated) displayed an EC50 of over 800 nM.

On to `CN1CCN(c2cc(C(F)(F)F)cnc2-c2nnc(N[C@H]3N=C(c4ccccc4)c4ccccc4NC3=O)o2)CC1`, for which the EC50 result is “in the range around 600 nM”.

In turn, `CN1CCN(c2cc(C(F)(F)F)cnc2-c2nnc(N[C@H]3N=C(c4ccccc4)c4ccccc4NC3=O)o2)CC1=O` had a concentration giving a half-maximal response (EC50) of over 800 nM.

For `Cc1ccc(-c2nnc(NC3N=C(c4ccccc4)c4ccccc4NC3=O)o2)o1` (configuration not stated), the EC50 is over 800 nM.

On to `NS(=O)(=O)c1ccc(-c2nnc(NC3N=C(c4ccccc4)c4ccccc4NC3=O)o2)cc1` (configuration not stated), for which the EC50 entry is “in the range around 600 nM”.

In turn, `O=C1Nc2ccccc2C(c2ccccc2)=N[C@@H]1Nc1nnc(-c2cnc(N3CC4CCC(C3)O4)nc2)o1` returned an EC50 of over 800 nM.

In turn, `O=C1Nc2ccccc2C(c2ccccc2)=N[C@H]1Nc1nnc(-c2ccco2)o1` had an EC50 of over 800 nM.

Turning to `CN[C@H](c1ccccc1)c1nnc(NC2N=C(c3ccccc3)c3ccccc3NC2=O)o1` (some centres not stated), the half-maximal effective concentration (EC50) was over 800 nM.

Compound `Cc1ccc(-c2nnc(N[C@H]3N=C(c4ccccc4)c4ccccc4NC3=O)o2)c(N2C3CCC2COC3)n1` had an EC50 of under 400 nM.

For `O=C1Nc2c(F)cccc2C(c2ccccc2)=N[C@H]1Nc1nnc(-c2cccnc2N2CCOCC2)o1`, the concentration giving a half-maximal response (EC50) is > 800 nM and < 400 nM.

As to `O=C1Nc2ccccc2C(c2ccccc2)=NC1Nc1nnc(-c2ccncc2)[nH]1` (configuration not stated), the EC50 is over 800 nM.

For the compound `O=C1Nc2ccccc2C(c2ccccc2)=NC1Nc1nnc(-c2ccccc2)o1` (configuration not stated), the EC50 is over 800 nM.

Turning to `O=C1Nc2ccccc2C(c2ccccc2)=NC1Nc1nnc(-c2ccc(F)cn2)o1` (configuration not stated), the EC50 was over 800 nM.

With `O=C1Nc2ccccc2C(c2ccccc2)=N[C@@H]1Nc1nnc(-c2cn(CC3CC3)nc2N2CCOCC2)o1`, the EC50 was < 400 nM and in the range around 600 nM.

`Cc1nc(N2CCOCC2)c(-c2nnc(N[C@H]3N=C(c4ccccc4)c4ccccc4NC3=O)o2)cc1C#N` gave an EC50 of under 400 nM.

With `O=C1Nc2ccccc2C(c2ccccc2)=N[C@@H]1Nc1cc(-c2ccccc2)cnn1`, the EC50 was over 800 nM.

On to `CCOC(=O)c1ccnc2ccc(COC)cc12`, for which the EC50 is over 800 nM.

`COCC1(Nc2cc(C(F)(F)F)cnc2-c2nnc(N[C@H]3N=C(c4ccccc4)c4ccccc4NC3=O)o2)CC1` gave an EC50 of over 800 nM.

Consider `CO[C@H]1CCN(c2ncccc2-c2nnc(NC3N=C(c4ccccc4)c4ccccc4NC3=O)o2)C1` (some centres not stated), for which the EC50 is over 800 nM.
